According to PubChem BioAssay AID1963835 (Molecular Pharmacology Branch, DTP, NCI, 2024):
Values joined by “and” are separate entries in the source; they are usually repeats but may differ in a detail not shown here. Equal values may be shown once.

Test system: 699152-130-R-J1-PDC complex spheroid viability
Assay: Anticancer human tumor 699152-130-R-J1-PDC patient-derived pancreatic carcinoma cell line growth inhibition [POLQ]
Settings: for viability, T/C: stronger effect = lower value
Protocol: Multicellular complex tumor spheroid response to Polymerase (POL) inhibitors (novobiocin, ART-558, RP6685) in combination with a variety of drugs and investigational agents in selected tumor cell lines
The POL inhibitors (novobiocin, ART-558, and RP6685) were evaluated both individually and in combination with standard of care and investigational anticancer small molecules within a complex spheroid model of solid tumors. . Complex spheroids include a stromal component modeled by human endothelial cells (HUVEC) and fibroblasts modeled by human mesenchymal stem cells (MSCs). The concentration ranges selected for each drug and investigational agent were based upon clinically achievable concentrations if the clinical Cmax of the agent was known.
Compounds. The drugs and investigational agents: novobiocin (NSC847541), ART-558 (NSC835418), RP-6685 (NSC848927), peposertib (NSC802822), ceralasertib (NSC780249), elimusertib (NSC800525), camonsertib (NSC841442), AZD-1390 (NSC803789), olaparib (NSC753686), talazoparib (NSC767125), rucaparib (NSC756644), sotorasib (NSC818433), MRTX-1133 (NSC836407), SN-38 (NSC673596), topotecan (NSC609699), epotoside (NSC141540), doxorubicin (NSC123127), gemcitabine (NSC613327), 5-fluorouracil (NSC19893), paclitaxel (NSC125973), vemurafenib (NSC761431), MSA-2 (NSC828583), SN-011 (NSC837082), adavosertib (NSC754352), prexasertib (NSC758257), carboplatin (NSC241240) and oxaliplatin (NSC266046), were obtained from the National Cancer Institute (NCI) Developmental Therapeutics Program Chemical Repository (21). The FDA-approved anticancer drug set is available from the Developmental Therapeutics Program at https://dtp.cancer.gov/organization/dscb/obtaining/. […] The stock solutions were prepared in dimethyl sulfoxide (DMSO, Sigma-Aldrich, St. Louis, MO, cat. D2650), except for the platinum compounds which were prepared in saline (Quality Biological, Gaithersburg, MD, cat. 114-055-101), at 800-fold the tested concentration and stored at -70 degrees C prior to their use. All drugs and investigational agents were tested over a range starting from a high concentration at or near the clinical Cmax and decreasing in half-log increments. If the clinical Cmax for an agent had not been determined, the highest concentration tested was 10 microM, except for SN-38, which was tested at a high concentration of 1 microM.
Cell Culture. All cells were maintained in an incubator at 37 degrees C and 5% CO2 with 95% humidity. The PDC lines were cultured according to standard operating procedures established by the NCI PDMR (https://pdmr.cancer.gov). Table 3 of the manuscript, lists the cell lines along with the number of the three cell types plated to form the mct-spheroids and media for tumor cell growth. After thawing, all PDC lines, except 997537-175-T-J1-PDC and 415267-285-R-J2-PDC, were cultured in Matrigel-coated flasks prepared with a working solution of 1X Ham's F-12 nutrient mix, without supplementation (Thermo Fisher Scientific, cat. 11765054), 100 U/mL penicillin-streptomycin (Thermo Fisher Scientific, cat. 15140122), and 2.5% Matrigel (Corning Inc., Corning, NY, cat. 354248) for the first three passages. The two PDC lines 997537-175-T-J1-PDC and 415267-285-R-J2-PDC were cultured on uncoated flasks. The 857933-349-R-J2-PDC line was cultured in 6C/Colon 1B media containing advanced DMEM/F-12 (Thermo Fisher Scientific, cat. 12634028), 10 mM HEPES (Thermo Fisher Scientific, cat. 15630080), 1X GlutaMAX supplement (Thermo Fisher Scientific, cat. 35050061), 0.1 mg/mL primocin (InvivoGen, San Diego, CA, cat. ant-pm-2), 10% defined fetal bovine serum, heat inactivated (HyClone Laboratories Inc., Logan, UT, cat. SH30070.03HI), 50% L-WRN conditioned media (ATCC, cat. CRL-3276), 1.25 mM N-Acetyl-L-cysteine (Sigma-Aldrich, cat. A9165), 10 mM nicotinamide (Sigma-Aldrich, cat. N0636), 1X B-27 supplement (Thermo Fisher Scientific, cat. 17504044), 1X N-2 supplement (Thermo Fisher Scientific, cat. […]

[1] = compound alone, run of 12/05/2023
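Also: spheroids exposed to agents for 7 days before viability reading.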
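For viability, T/C in this document: percent of DMSO vehicle control viability so 100% = vehicle and 0% = no viable signal.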

Row | Structure (SMILES) | viability, T/C (compound 0.0316 µM) | viability, T/C (compound 0.1 µM) | viability, T/C (compound 0.316 µM) | viability, T/C (compound 1 µM) | viability, T/C (compound 3.16 µM) | viability, T/C (compound 10 µM) | IC50 (curve of compound) | viability, T/C (compound 0.00316 µM) | viability, T/C (compound 0.01 µM) | IC50 (compound alone, run of 11/27/2023) | IC50 [1] | viability, T/C (compound 0.000316 µM) | viability, T/C (compound 0.001 µM)
1 | CNCc1ccc(-c2[nH]c3cc(F)cc4c3c2CCNC4=O)cc1 | 96.2% and 95.6% and 99% | 99.8% and 91.1% and 101% | 118% and 90.3% and 99.8% | 106% and 108% and 112% | 119% and 117% and 138% | 111% and 109% and 130% | > 10 µM |  |  |  |  |  | 
2 | COc1cc(C2c3cc4c(cc3C(OC3OC5COC(C)OC5C(O)C3O)C3COC(=O)C23)OCO4)cc(OC)c1O (stereo unspecified) | 105% and 94.4% and 87.1% | 90.3% and 87% and 86.1% | 76.8% and 81.6% and 71.8% | 73.7% and 79.2% and 62.8% | 59.8% and 63.5% and 52.7% | 53.1% and 44% and 40.2% | > 10 µM and 7.19 µM and 3.71 µM |  |  |  |  |  | 
3 | COc1cc2cc(C(=O)CCC(=O)O)sc2cc1OC | 101% (2×) and 90.4% | 98.7% and 97.3% and 103% | 94.8% and 103% and 101% | 102% and 96.4% and 105% | 111% (2×) and 91.5% | 99.7% and 93.3% and 99.9% | > 10 µM |  |  |  |  |  | 
4 | COc1ccc([C@@H](O)c2cc(-c3ncnc4cc(N5CCOCC5)ccc34)c(F)cc2Cl)nn1 | 111% and 87.9% and 88.4% | 96.7% and 92.9% and 106% | 94.5% and 88.7% and 79.7% | 84.6% and 77.3% and 75% | 49.6% and 50.5% and 60.4% | 23.9% and 19.9% and 19.4% | 3.41 µM and 3.19 µM and 3.96 µM |  |  |  |  |  | 
5 | COc1cccc(OCCCN)c1-c1cc(Nc2cnc(C#N)cn2)n[nH]1 | 66% and 60% and 74.3% | 56.1% and 57.8% and 62.7% | 55.3% and 56.8% and 60.6% | 50.4% and 52.5% and 58.4% |  |  | > 1 µM | 94% and 98.1% and 84.3% | 84.5% and 83.7% and 91.9% |  |  |  | 
6 | COc1cccc2c1C(=O)c1c(O)c3c(c(O)c1C2=O)CC(O)(C(=O)CO)CC3OC1CC(N)C(O)C(C)O1 (stereo unspecified) | 72.5% and 86.9% and 85.1% | 60.1% and 60.5% and 89.2% | 48.5% and 51.9% and 44.8% | 31.2% and 30.2% and 27.1% | 2.58% and 1.68% and 2.6% | 11.1% and 13.1% and 12.4% | 0.286 µM and 0.257 µM and 0.32 µM |  |  |  |  |  | 
7 | Cc1cccc(N(C)C(=O)C2C(O)CCN2c2nc(C)cc(C(F)(F)F)c2C#N)c1 (stereo unspecified) | 105% [middle of 13 runs] | 102% [middle of 13 runs] | 101% [middle of 13 runs] | 104% [middle of 13 runs] |  | 102% [middle of 13 runs] |  |  |  | > 10 µM | > 10 µM |  | 
8 | Cn1ncnc1[C@H]1c2n[nH]c(=O)c3cc(F)cc(c23)N[C@@H]1c1ccc(F)cc1 | 83.2% and 89.8% and 97.3% | 86.5% and 95.5% and 92.5% |  |  |  |  | > 0.1 µM | 95% and 104% and 108% | 80.8% and 104% and 106% |  |  | 94.3% and 91% and 102% | 88.8% and 78.8% and 93%
9 | Nc1ccc(C#CCN(C(=O)Cc2ncc(C(F)(F)F)cc2C(F)(F)F)c2ccc(F)cc2)nn1 | 96.2% [middle of 13 runs] | 99.3% [middle of 13 runs] | 101% [middle of 13 runs] | 101% [middle of 13 runs] | 103% [middle of 13 runs] | 113% [middle of 13 runs] |  |  |  |  | > 10 µM |  | 
10 | Nc1ccn(C2OC(CO)C(O)C2(F)F)c(=O)n1 (stereo unspecified) | 68.9% and 75.2% and 66% | 63.8% and 57.4% and 54.5% | 54.8% and 51.7% and 52.1% | 49.3% and 52.1% and 41.2% | 44.3% and 51.1% and 40.1% | 39.6% and 44.7% and 36% | 0.917 µM and 0.786 µM and 0.277 µM |  |  |  |  |  | 
11 | O=C(Nc1ccc(O)c(NS(=O)(=O)c2ccc(F)cc2)c1)c1ccc(-c2ccccc2)cc1 | 114% and 90.3% and 92.6% | 104% and 94.2% and 112% | 101% and 103% (2×) | 102% and 109% and 107% | 106% and 108% and 112% | 71.6% and 70% and 81.6% | > 10 µM |  |  |  |  |  | 
12 | O=C(c1cc(Cc2n[nH]c(=O)c3ccccc23)ccc1F)N1CCN(C(=O)C2CC2)CC1 | 101% and 104% and 103% | 99.6% and 92.1% and 91.6% | 100% and 98% and 95.9% | 93.5% and 90.7% and 103% | 91.4% and 87.8% and 91.5% | 71.4% and 59.8% and 88.3% | > 10 µM |  |  |  |  |  | 
13 | O=c1[nH]cc(F)c(=O)[nH]1 | 91.8% and 111% and 102% | 130% and 91.7% and 100% | 96.3% and 108% and 117% | 101% and 114% and 94% | 108% and 92.4% and 91% | 70.4% and 70.2% and 62.4% | > 10 µM |  |  |  |  |  | 
